Source: ChEMBL document CHEMBL5223091, “Targeting the Mitotic Kinesin KIF18A in Chromosomally Unstable Cancers: Hit Optimization Toward an In Vivo Chemical Probe” (J Med Chem, 2022)

Key:
[1] = target: T1, Kinesin-like protein KIF18A (Homo sapiens, UniProt Q8NI77); test: Inhibition of recombinant His-tagged human KIF18A (1 to 467 residues) expressed in Trichoplusia ni insect cells assessed as inhibition of microtubule-stimulated ATPase activity preincubated for 30 mins followed by ATP addition and further incubated for 15 mins by ADP-Glo reagent based assay; set-up: species or system Insect cell
T1 sequence (Q8NI77 whole entry): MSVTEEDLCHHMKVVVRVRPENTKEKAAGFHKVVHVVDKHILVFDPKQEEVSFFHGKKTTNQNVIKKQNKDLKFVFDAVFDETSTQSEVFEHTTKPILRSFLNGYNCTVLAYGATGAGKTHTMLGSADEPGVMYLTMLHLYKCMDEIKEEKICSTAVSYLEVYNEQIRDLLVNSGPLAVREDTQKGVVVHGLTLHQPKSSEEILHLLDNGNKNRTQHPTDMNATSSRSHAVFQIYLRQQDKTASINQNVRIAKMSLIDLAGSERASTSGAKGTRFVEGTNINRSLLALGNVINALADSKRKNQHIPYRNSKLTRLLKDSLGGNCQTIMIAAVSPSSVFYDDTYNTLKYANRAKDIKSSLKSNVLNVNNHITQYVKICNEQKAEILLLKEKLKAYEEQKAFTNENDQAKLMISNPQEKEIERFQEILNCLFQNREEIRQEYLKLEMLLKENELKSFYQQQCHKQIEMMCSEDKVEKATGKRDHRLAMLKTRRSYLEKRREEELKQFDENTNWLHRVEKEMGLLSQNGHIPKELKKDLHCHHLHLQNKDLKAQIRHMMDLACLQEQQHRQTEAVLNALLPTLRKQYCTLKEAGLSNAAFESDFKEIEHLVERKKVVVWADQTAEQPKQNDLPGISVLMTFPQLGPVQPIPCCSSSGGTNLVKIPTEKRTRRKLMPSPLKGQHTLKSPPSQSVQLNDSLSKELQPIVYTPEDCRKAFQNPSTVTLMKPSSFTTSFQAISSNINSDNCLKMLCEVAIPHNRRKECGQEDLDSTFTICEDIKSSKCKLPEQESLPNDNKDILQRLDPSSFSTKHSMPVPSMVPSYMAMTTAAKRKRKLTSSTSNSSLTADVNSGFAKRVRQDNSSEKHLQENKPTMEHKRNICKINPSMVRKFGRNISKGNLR

[2] = Metabolic stability in mouse liver microsomes assessed as intrinsic clearance at 0.5 uM incubated upto 40 mins by LCMS analysis; type: ADME, Microsome; details: read-out: CLH
[3] = Metabolic stability in human liver microsomes assessed as intrinsic clearance at 0.5 uM incubated upto 40 mins by LCMS analysis; type: ADME, Microsome; details: read-out: CLH
OVCAR-3 [4] = test: Induction of mitotic arrest in human OVCAR-3 cells assessed as p-histone H3 incubated for 24 hrs by mitotic - imaging assay; type: functional, cell-based; details: OVCAR-3, 24 h
OVCAR-3 [5] = test: Antiproliferative activity against human OVCAR-3 cells by nuclear count assay; type: functional, cell-based
[6] = Clearance in CD-1 mouse at 1 mg/kg, iv and 10 mg/kg, po; type: ADME, organism-based; details: in vivo
[7] = Volume of distribution at steady state in CD-1 mouse at 1 mg/kg, iv and 10 mg/kg, po; type: ADME, organism-based; details: in vivo
[8] = Half life in CD-1 mouse at 1 mg/kg, iv and 10 mg/kg, po; type: ADME, organism-based; details: in vivo
[9] = Cmax in CD-1 mouse at 1 mg/kg, iv and 10 mg/kg, po; type: ADME, organism-based; set-up: dose 10 mg/kg, route po; details: in vivo
[10] = Oral bioavailability in CD-1 mouse at 10 mg/kg; type: ADME, organism-based; details: in vivo
[11] = Unbound fraction in plasma (unknown origin) by ultracentrifugation; type: ADME, cell-free
[12] = target: T2, Kinesin-like protein KIF11 (Homo sapiens, UniProt P52732); test: Inhibition of recombinant GST-tagged human Eg5 assessed as inhibition of microtubule-stimulated ATPase activity preincubated for 30 mins followed by ATP addition and further incubated for 15 mins by ADP-Glo reagent based assay
T2 sequence (P52732 whole entry): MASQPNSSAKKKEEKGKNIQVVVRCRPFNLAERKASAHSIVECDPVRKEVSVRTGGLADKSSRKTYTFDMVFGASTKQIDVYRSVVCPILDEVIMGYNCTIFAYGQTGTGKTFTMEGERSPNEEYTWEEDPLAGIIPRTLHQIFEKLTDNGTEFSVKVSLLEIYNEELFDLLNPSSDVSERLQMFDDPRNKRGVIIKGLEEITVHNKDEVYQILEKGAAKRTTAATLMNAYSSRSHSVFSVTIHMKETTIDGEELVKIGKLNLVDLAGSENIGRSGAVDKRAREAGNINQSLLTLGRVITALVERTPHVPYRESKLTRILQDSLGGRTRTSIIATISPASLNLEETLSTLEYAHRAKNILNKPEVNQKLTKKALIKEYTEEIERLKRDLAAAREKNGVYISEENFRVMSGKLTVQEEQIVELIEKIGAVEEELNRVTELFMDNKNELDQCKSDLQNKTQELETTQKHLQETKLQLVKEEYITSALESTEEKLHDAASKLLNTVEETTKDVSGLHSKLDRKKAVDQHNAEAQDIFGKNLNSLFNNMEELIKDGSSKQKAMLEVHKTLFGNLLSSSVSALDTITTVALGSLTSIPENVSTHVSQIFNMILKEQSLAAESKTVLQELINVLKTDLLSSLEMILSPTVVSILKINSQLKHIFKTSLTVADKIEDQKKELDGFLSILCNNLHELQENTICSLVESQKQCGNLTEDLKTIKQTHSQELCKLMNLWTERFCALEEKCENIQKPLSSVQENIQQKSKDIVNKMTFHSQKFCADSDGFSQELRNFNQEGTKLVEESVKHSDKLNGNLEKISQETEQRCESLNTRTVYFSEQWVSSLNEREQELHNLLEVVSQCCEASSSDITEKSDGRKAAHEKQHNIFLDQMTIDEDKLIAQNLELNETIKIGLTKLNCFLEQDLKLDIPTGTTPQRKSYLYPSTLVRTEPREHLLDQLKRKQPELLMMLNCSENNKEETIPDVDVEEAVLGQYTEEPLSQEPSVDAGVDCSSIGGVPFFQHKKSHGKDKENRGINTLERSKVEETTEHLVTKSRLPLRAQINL

[13] = target: Centromere-associated protein E (Homo sapiens, UniProt Q02224); test: Inhibition of recombinant GST-tagged human CENP-E assessed as inhibition of microtubule-stimulated ATPase activity preincubated for 30 mins followed by ATP addition and further incubated for 15 mins by ADP-Glo reagent based assay
MDA-MB-157 = test: Induction of mitotic arrest in TP53 mutant human MDA-MB-157 cells assessed as multipolar spindle arrays by measuring pericentriolar material incubated for 24 hrs by mitotic index assay; type: functional, cell-based; details: MDA-MB-157, 24 h
[14] = Cmax in CD-1 mouse xenografted with human OVCAR-3 cells at 100 mg/kg, ip by LC-MS/MS analysis; type: ADME, organism-based; set-up: dose 100 mg/kg, route ip; details: in vivo
[15] = AUC (0 to 24 hrs) in CD-1 mouse xenografted with human OVCAR-3 cells at 100 mg/kg, ip by LC-MS/MS analysis; type: ADME, organism-based; set-up: dose 100 mg/kg, route ip; details: in vivo
[16] = Plasma concentration in CD-1 mouse xenografted with human OVCAR-3 cells at 100 mg/kg, ip measured upto 24 hrs by LC-MS/MS analysis; type: ADME, organism-based
[17] = Unbound fraction in CD-1 mouse plasma xenografted with human OVCAR-3 cells at 100 mg/kg, ip by LC-MS/MS analysis; type: ADME, organism-based

Centromere-associated protein E, sequence (Q02224 whole entry): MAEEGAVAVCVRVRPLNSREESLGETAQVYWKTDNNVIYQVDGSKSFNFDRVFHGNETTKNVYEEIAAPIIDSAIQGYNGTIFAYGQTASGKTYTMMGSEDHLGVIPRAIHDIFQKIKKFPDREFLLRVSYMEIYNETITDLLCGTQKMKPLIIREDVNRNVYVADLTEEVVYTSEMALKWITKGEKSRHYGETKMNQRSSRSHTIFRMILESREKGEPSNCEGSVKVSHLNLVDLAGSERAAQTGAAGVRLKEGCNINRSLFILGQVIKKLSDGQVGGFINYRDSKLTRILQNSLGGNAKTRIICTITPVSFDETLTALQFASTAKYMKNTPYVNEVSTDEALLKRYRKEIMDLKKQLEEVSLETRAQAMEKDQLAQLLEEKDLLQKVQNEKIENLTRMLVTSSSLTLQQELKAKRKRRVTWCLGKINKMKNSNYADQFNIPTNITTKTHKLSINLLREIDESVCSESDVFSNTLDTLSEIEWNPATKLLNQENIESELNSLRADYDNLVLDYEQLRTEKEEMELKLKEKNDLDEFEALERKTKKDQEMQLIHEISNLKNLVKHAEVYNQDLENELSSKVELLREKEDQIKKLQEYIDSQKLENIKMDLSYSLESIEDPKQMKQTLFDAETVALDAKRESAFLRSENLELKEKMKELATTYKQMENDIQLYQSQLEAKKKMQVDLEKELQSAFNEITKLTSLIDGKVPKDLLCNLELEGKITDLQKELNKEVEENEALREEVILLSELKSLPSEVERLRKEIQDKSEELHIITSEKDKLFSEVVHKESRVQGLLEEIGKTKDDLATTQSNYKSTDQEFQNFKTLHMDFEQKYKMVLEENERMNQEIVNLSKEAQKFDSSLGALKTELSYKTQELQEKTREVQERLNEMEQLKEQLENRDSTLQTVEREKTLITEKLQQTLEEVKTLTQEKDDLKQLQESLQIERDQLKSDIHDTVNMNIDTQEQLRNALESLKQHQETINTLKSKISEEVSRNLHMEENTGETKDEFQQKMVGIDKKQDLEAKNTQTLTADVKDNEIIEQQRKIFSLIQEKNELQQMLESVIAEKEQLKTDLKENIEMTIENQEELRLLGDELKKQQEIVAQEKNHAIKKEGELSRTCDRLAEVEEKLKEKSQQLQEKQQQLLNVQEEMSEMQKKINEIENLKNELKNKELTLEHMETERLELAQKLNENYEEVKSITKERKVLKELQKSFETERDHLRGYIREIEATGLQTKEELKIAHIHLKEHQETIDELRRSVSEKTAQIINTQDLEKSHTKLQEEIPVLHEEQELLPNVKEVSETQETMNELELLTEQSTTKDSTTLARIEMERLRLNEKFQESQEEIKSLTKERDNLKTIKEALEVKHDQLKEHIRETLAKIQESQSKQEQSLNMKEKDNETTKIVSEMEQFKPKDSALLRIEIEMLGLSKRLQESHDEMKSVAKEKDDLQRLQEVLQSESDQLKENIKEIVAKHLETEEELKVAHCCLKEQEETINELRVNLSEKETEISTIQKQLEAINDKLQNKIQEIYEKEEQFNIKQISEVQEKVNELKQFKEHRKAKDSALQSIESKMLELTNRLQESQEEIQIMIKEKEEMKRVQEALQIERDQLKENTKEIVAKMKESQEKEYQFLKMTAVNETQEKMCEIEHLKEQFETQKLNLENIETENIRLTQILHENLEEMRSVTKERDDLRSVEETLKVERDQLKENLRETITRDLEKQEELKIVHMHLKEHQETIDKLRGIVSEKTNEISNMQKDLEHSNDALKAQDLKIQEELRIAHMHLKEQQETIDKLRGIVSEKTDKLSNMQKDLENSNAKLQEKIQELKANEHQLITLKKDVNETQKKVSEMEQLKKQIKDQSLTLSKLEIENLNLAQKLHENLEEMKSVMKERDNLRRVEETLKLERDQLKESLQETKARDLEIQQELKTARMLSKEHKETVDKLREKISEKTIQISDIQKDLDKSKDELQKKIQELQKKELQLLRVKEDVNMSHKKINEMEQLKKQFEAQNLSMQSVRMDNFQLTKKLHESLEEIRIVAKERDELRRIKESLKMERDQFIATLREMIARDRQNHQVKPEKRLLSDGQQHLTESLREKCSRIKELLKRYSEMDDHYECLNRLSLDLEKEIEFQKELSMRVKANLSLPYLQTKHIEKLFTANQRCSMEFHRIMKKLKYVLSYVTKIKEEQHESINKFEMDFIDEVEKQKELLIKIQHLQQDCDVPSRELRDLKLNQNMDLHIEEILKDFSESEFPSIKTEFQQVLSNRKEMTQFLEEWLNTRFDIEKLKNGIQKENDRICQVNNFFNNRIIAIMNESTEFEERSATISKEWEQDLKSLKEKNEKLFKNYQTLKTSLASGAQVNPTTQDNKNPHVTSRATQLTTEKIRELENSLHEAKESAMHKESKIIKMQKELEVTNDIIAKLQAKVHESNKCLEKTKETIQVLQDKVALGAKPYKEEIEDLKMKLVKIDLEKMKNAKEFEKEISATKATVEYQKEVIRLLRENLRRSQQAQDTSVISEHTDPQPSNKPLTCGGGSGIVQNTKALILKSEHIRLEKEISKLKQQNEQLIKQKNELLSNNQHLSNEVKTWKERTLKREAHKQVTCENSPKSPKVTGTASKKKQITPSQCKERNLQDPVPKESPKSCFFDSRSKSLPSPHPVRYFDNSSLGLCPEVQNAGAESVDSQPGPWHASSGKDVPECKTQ

| Compound | IC50 [1] | microsomal CLint at 0.5 µM [2] | microsomal CLint at 0.5 µM [3] | EC50 (OVCAR-3 [4]) | EC50 (OVCAR-3 [5]) | further results |
| --- | --- | --- | --- | --- | --- | --- |
| CC1(C)CCN(c2ncccc2C(=O)Nc2cccc(S(=O)(=O)C3CCCC3)c2)CC1 | 1250 nM | > 399 µL/min/mg | > 399 µL/min/mg | 2720 nM | 2140 nM | – |
| CC(C)(C)NS(=O)(=O)c1cccc(NC(=O)c2ccc(NC(C)(C)CO)nc2N2CCC3(CC2)CC3)n1 | 81 nM | > 399 µL/min/mg | > 399 µL/min/mg | 43 nM | 42 nM | – |
| O=C(Nc1cccc(C2(C(F)(F)F)N=N2)c1)c1ccc(NS(=O)(=O)CCO)nc1N1CCC2(CC1)CC2 | 32 nM | – | – | – | – | – |
| O=C(Nc1cccc(S(=O)(=O)NC2CC2)c1)c1cccnc1N1CCC2(CC1)CC2 | 580 nM | > 399 µL/min/mg | > 399 µL/min/mg | 2260 nM | 1790 nM | – |
| COc1ccc(C(=O)Nc2cccc(S(=O)(=O)C3CCCC3)n2)c(N2CCC3(CC2)CC3)c1 | 360 nM | > 399 µL/min/mg | > 399 µL/min/mg | 2660 nM | 2350 nM | – |
| O=C(Nc1cccc(S(=O)(=O)N2CCCC2)c1)c1cccnc1N1CCC2(CC1)CC2 | 1830 nM | > 399 µL/min/mg | > 399 µL/min/mg | 5460 nM | 4420 nM | – |
| CC(C)(C)NS(=O)(=O)c1cccc(NC(=O)c2ccc(NC(C)(C)CO)cc2N2CCC3(CC2)CC3)n1 | 140 nM | > 399 µL/min/mg | 189 µL/min/mg | 28 nM | 23 nM | – |
| O=[N+]([O-])c1cc(Cl)ccc1S(=O)(=O)c1ccccc1 | 1700 nM | – | – | – | – | – |
| CC(C)(C)NS(=O)(=O)c1cccc(NC(=O)c2ccc(NC3(CO)CC3)cc2N2CCC3(CC2)CC3)n1 | 166 nM | 58 µL/min/mg | 83 µL/min/mg | 75 nM | 62 nM | CL [6]: 5 mL/min/kg; Vdss [7]: 0.3 L/kg; half-life [8]: 1.5 h; Cmax [9]: 5.45 µM; bioavailability [10]: 22%; fraction unbound [11]: 0.011 |
| CC(C)(C)NS(=O)(=O)c1cccc(NC(=O)c2cccnc2N2CCC3(CC2)CC3)c1 | 320 nM | > 399 µL/min/mg | > 399 µL/min/mg | 1030 nM | 840 nM | – |
| CC(C)(CO)Nc1ccc(C(=O)Nc2cccc(S(=O)(=O)NC3CCCC3)n2)c(N2CCC3(CC2)CC3)c1 | 80 nM | > 399 µL/min/mg | > 399 µL/min/mg | 48 nM | 32 nM | – |
| O=C(Nc1cccc(S(=O)(=O)N2CCCCC2)c1)c1cn[nH]c1-c1ccc(Cl)cc1 | 520 nM | > 399 µL/min/mg | 255 µL/min/mg | – | – | IC50 [12]: > 100000 nM; IC50 [13]: > 100000 nM; IC50 (MDA-MB-157): 8800 nM |
| O=C(Nc1cccc(S(=O)(=O)C2CCCC2)n1)c1ccc(NCCO)cc1N1CCC2(CC1)CC2 | 92 nM | > 399 µL/min/mg | > 399 µL/min/mg | 177 nM | 117 nM | – |
| CC(C)S(=O)(=O)c1cccc(NC(=O)c2cccnc2N2CCC3(CC2)CC3)c1 | 3150 nM | > 399 µL/min/mg | 375 µL/min/mg | 4290 nM | 4480 nM | – |
| CC(C)(C)NS(=O)(=O)c1cccc(NC(=O)c2ncc(NC(C)(C)CO)nc2N2CCC3(CC2)CC3)c1 | 135 nM | 76 µL/min/mg | 74 µL/min/mg | 190 nM | 110 nM | CL [6]: 5 mL/min/kg; Vdss [7]: 0.7 L/kg; half-life [8]: 3.6 h; Cmax [9]: 2.43 µM; bioavailability [10]: 13%; fraction unbound [11]: 0.019 |
| O=C(Nc1cccc(S(=O)(=O)C2CCCC2)c1)c1cccnc1N1CCCCC1 | 6160 nM | > 399 µL/min/mg | > 399 µL/min/mg | 6350 nM | 5030 nM | IC50 [12]: > 100000 nM; IC50 [13]: > 100000 nM; IC50 (MDA-MB-157): 4800 nM |
| CN(CCO)c1ccc(C(=O)Nc2cccc(S(=O)(=O)C3CCCC3)n2)c(N2CCC3(CC2)CC3)c1 | 253 nM | > 399 µL/min/mg | > 399 µL/min/mg | 449 nM | 358 nM | – |
| O=C(Nc1cccc(S(=O)(=O)C2COC2)c1)c1cccnc1N1CCC2(CC1)CC2 | 8880 nM | 385 µL/min/mg | 183 µL/min/mg | 14800 nM | 12600 nM | – |
| CC(C)(C)NS(=O)(=O)c1cccc(NC(=O)c2ccc(NS(=O)(=O)C3(C)CC3)cc2N2CCC3(CC2)CC3)c1 | – | 90 µL/min/mg | 90 µL/min/mg | 11 nM | 11 nM | Cmax [14]: 26.5 µM; AUC(0-t) [15]: 269 µM·h; concentration at 24 h [16]: 0.8 µM; fraction unbound [17]: 0.015 |
| CC(C)(CO)S(=O)(=O)c1cccc(NC(=O)c2cccnc2N2CCC3(CC2)CC3)c1 | 31600 nM | > 399 µL/min/mg | 154 µL/min/mg | 45800 nM | 31200 nM | – |
| CC(C)(O)CNc1ccc(C(=O)Nc2cccc(S(=O)(=O)C3CCCC3)n2)c(N2CCC3(CC2)CC3)c1 | 165 nM | > 399 µL/min/mg | > 399 µL/min/mg | 228 nM | 229 nM | – |
| O=C(Nc1cccc(S(=O)(=O)C2CCCC2)c1)c1cccnc1N1CCC(F)(F)CC1 | 5310 nM | > 399 µL/min/mg | > 399 µL/min/mg | 4630 nM | 4780 nM | – |
